In patent US9221809B2 (MERCK SHARP & DOHME CORP., priority 2011, dated 2015) one finds IC50 data, which are given here for 34 compounds.

pIC50: −log10 of the molar value. Like-named read-outs stand apart in the source and are kept apart here.

The target in this assay is IRAK4 (Homo sapiens (Human), UniProt Q9NWZ3). Put plainly: IRAK4 kinase activity, IMAP fluorescence polarization assay. As to conditions: 100 μM ATP. The class given is biochemical. In a few lines:
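Fluorescence polarization (IMAP nanoparticle binding of phosphopeptide) reports activity after a 30 min, 25 °C reaction. Conditions: 100 μM ATP, 0.5 nM GST-IRAK4, 100 nM fluorescent peptide, 10 mM Tris pH 7.2, 1 mM MgCl2, 1 mM DTT, 0.01% Tween 20.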
(In general: In fluorescence polarisation assays a small probe gives low polarisation when free and higher when bound to something large.)

[1] abbreviates: 0.5 nM GST tagged IRAK4, read-out: IRAK4 IC50.

IRAK4, sequence (Q9NWZ3 whole entry): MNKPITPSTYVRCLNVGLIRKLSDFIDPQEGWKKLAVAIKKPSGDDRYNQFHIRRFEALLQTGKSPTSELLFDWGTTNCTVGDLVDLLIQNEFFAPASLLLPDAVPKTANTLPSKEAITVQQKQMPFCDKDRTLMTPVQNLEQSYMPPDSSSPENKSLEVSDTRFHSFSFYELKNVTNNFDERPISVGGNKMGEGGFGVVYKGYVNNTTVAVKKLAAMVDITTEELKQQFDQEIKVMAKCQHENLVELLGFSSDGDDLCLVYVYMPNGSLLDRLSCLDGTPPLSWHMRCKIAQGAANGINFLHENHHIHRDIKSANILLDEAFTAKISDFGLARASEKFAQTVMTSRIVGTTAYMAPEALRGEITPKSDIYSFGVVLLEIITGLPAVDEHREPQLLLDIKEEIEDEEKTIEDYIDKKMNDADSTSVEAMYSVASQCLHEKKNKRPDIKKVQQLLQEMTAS

The pIC50 is −log10 of the IC50, conventionally taken in molar units. `O=c1[nH]c(N2CCOCC2)nc(N[C@@H]2CCCNC2)c1-c1nc(-c2ccc(C(F)(F)F)cn2)cs1` [Example 206]: the negative-log IC50 (pIC50) (read-out: IRAK4 IC50) is 5.62.
Turning to `O=c1[nH]c(N2CCOCC2)nc(N[C@@H]2CCCNC2)c1-c1nc(-c2ccccn2)cs1` [Example 207], the pIC50 (read-out: IRAK4 IC50) was 7.68.
For `O=c1[nH]c(N2CCOCC2)nc(NC2CN3CCC2CC3)c1-c1nc2ccccc2s1` (stereo not shown) [Example 208, 5-(benzo[d]thiazol-2-yl)-2-morpholino-6-(quinolidin-3-ylamino)pyrimidin-4(3H)-one], the pIC50 (read-out: IC50) is 7.30.
Turning to `C[C@H]1C[C@@H](Nc2nc(N3CCOCC3)[nH]c(=O)c2-c2nc3ccccc3s2)CN1` [Example 209, 5-(benzo[d]thiazol-2-yl)-6-(((3R,5S)-5-methylpyrrolidin-3-yl)amino)-2-morpholinopyrimidin-4(3H)-one], under “read-out: IC50”, the negative-log IC50 (pIC50) is 6.44.
On to `C[C@@H]1C[C@@H](Nc2nc(N3CCOCC3)[nH]c(=O)c2-c2nc3ccccc3s2)CN1` [Example 210, 5-(benzo[d]thiazol-2-yl)-6-(((3R,5R)-5-methylpyrrolidin-3-yl)amino)-2-morpholinopyrimidin-4(3H)-one], for which, for the setting “read-out: IC50”, the negative-log IC50 (pIC50) was 6.82.
For `O=c1[nH]c(N2CCOCC2)nc(N[C@@H]2C[C@@H]3CN[C@H]2C3)c1-c1nc2ccccc2s1` [Example 211, 6-((1S,4R,6R)-2-azabicyclo[2.2.1]heptan-6-ylamino)-5-(benzo[d]thiazol-2-yl)-2-morpholinopyrimidin-4(3H)-one], the pIC50 (read-out: IC50) is 6.72.
As to `O=c1[nH]c(N2CCOCC2)nc(N[C@H]2CNCC(F)(F)C2)c1-c1nc2ccccc2s1` [Example 212, (R)-5-(benzo[d]thiazol-2-yl)-6-((5,5-difluoropiperidin-3-yl)amino)-2-morpholinopyrimidin-4(3H)-one], the negative-log IC50 (pIC50) (read-out: IC50) is 6.10.
Regarding `O=c1[nH]c(N2CCOCC2)nc(N[C@H]2CNCC[C@@H]2F)c1-c1nc2ccccc2s1` [Example 213, 5-(benzo[d]thiazol-2-yl)-6-(((3S,4S)-4-fluoropiperidin-3-yl)amino)-2-morpholinopyrimidin-4(3H)-one], the pIC50 (read-out: IC50) is 7.85.
In the case of `O=c1[nH]c(N2CCOCC2)nc(N[C@@H]2CCCNC2)c1-c1csc(-n2cccc2)n1` [Example 214, (R)-5-(2-(1H-pyrrol-1-yl)thiazol-4-yl)-2-morpholino-6-(piperidin-3-ylamino)pyrimidin-4(3H)-one], under setting [1], the pIC50 is 7.92.
For `O=c1[nH]c(N2CCOCC2)nc(N[C@@H]2CCCNC2)c1-c1cccc(-n2cccc2)n1` [Example 215, (R)-5-(6-(1H-pyrrol-1-yl)pyridin-2-yl)-2-morpholino-6-(piperidin-3-ylamino)pyrimidin-4(3H)-one], the pIC50 (read-out: IC50) was 6.73.
With `O=C1CCCN1c1cccc(-c2c(N[C@@H]3CCCNC3)nc(N3CCOCC3)[nH]c2=O)n1` [Example 216, (R)-2-morpholino-5-(6-(2-oxopyrrolidin-1-yl)pyridin-2-yl)-6-(piperidin-3-ylamino)pyrimidin-4(3H)-one], the pIC50 (read-out: IC50) was 6.59.
Take `O=c1[nH]c(N2CCOCC2)nc(N[C@@H]2CCCNC2)c1-c1csc(-n2cccn2)n1` [Example 217, (R)-5-(2-(1H-pyrazol-1-yl)thiazol-4-yl)-2-morpholino-6-(piperidin-3-ylamino)pyrimidin-4(3H)-one]: for the setting “read-out: IC50”, the negative-log IC50 (pIC50) is 7.09.
For the compound `O=c1[nH]c(N2CCOCC2)nc(N[C@@H]2CCCNC2)c1-c1csc(-c2ccccc2)n1` [Example 218, (R)-2-morpholino-5-(2-phenylthiazol-4-yl)-6-(piperidin-3-ylamino)pyrimidin-4(3H)-one], where the note is “read-out: IC50”, the pIC50 is 8.15.
In the case of `O=c1[nH]c(N2CCOCC2)nc(N[C@@H]2CCCNC2)c1-c1csc(-n2ccnc2)n1` [Example 219, (R)-5-(2-(1H-imidazol-1-yl)thiazol-4-yl)-2-morpholino-6-(piperidin-3-ylamino)pyrimidin-4(3H)-one], the negative-log IC50 (pIC50) (read-out: IC50) was 8.40.
With `O=c1[nH]c(N2CCOCC2)nc(N[C@@H]2CCCNC2)c1-c1ncc(F)cn1` [Example 220, (R)-5-fluoro-2′-morpholino-6′-(piperidin-3-ylamino)-[2,5′-bipyrimidin]-4′(3′H)-one], the pIC50 under setting [1] was 6.66.
Regarding `N#Cc1cccc(-c2c(N[C@@H]3CCCNC3)nc(N3CCOCC3)[nH]c2=O)n1` [Example 221, (R)-6-(2-morpholino-6-oxo-4-(piperidin-3-ylamino)-1,6-dihydropyrimidin-5-yl)picolinonitrile], the negative-log IC50 (pIC50) (read-out: IC50) is 6.78.
Take `N#Cc1ccnc(-c2c(N[C@@H]3CCCNC3)nc(N3CCOCC3)[nH]c2=O)c1` [Example 222, (R)-2-(2-morpholino-6-oxo-4-(piperidin-3-ylamino)-1,6-dihydropyrimidin-5-yl)isonicotinonitrile]: the negative-log IC50 (pIC50) (read-out: IC50) was 5.25.
Same read-out and setting: to `N#Cc1ccc(-c2c(N[C@@H]3CCCNC3)nc(N3CCOCC3)[nH]c2=O)nc1` [Example 223, (R)-6-(2-morpholino-6-oxo-4-(piperidin-3-ylamino)-1,6-dihydropyrimidin-5-yl)nicotinonitrile] belongs 7.09.
For `O=c1[nH]c(N2CCOCC2)nc(N[C@@H]2CCCNC2)c1-c1ccc(C2CC2)cn1` [Example 224, (R)-5-(5-cyclopropylpyridin-2-yl)-2-morpholino-6-(piperidin-3-ylamino)pyrimidin-4(3H)-one], the pIC50 (read-out: IC50) was 6.29.
Regarding `O=c1[nH]c(N2CCOCC2)nc(N[C@@H]2CCCNC2)c1-c1cc2ccccc2cn1` [Example 225, (R)-5-(isoquinolin-3-yl)-2-morpholino-6-(piperidin-3-ylamino)pyrimidin-4(3H)-one], the negative-log IC50 (pIC50) (read-out: IC50) is 6.33.
As for `CCN1CCC(c2nc(N[C@@H]3CCCNC3)c(-c3nc4ccccc4s3)c(=O)[nH]2)CC1` [Example 227], the negative-log IC50 (pIC50) (read-out: IC50) is 5.85.
Turning to `CC(C)N1CCC(c2nc(N[C@@H]3CCCNC3)c(-c3nc4ccccc4s3)c(=O)[nH]2)CC1` [Example 228, (R)-5-(1,3-benzothiazol-2-yl)-6-[[(3R)-piperidin-3-yl]amino]-2-[1-(propan-2-yl)piperidin-4-yl]-3,4-dihydro-pyrimidin-4-one], the pIC50 (read-out: IC50) is 6.18.
Same read-out and setting: next, `O=c1[nH]c(C2CCN(CC3CC3)CC2)nc(N[C@@H]2CCCNC2)c1-c1nc2ccccc2s1` [Example 229, 5-(1,3-benzothiazol-2-yl)-2-[1-(cyclo-propylmethyl)piperidin-4-yl]-6-[[(3R)-piperidin-3-yl]amino]-3,4-dihydropyrimidin-4-one]: 6.47; `O=c1[nH]c(C2CCN(C3CCC3)CC2)nc(N[C@@H]2CCCNC2)c1-c1nc2ccccc2s1` [Example 230, (R)-5-(1,3-benzothiazol-2-yl)-2-[1-cyclo-butylpiperidin-4-yl)-6-[(piperidin-3-yl)amino]-3,4-dihydropyrimidin-4-one]: 6.14; `O=c1[nH]c(C2CCN(C3CCCC3)CC2)nc(N[C@@H]2CCCNC2)c1-c1nc2ccccc2s1` [Example 231, 5-(1,3-benzothiazol-2-yl)-2-(1-cyclo-pentylpiperidin-4-yl)-6-[[(3R)-piperidin-3-yl]amino]-3,4-dihydropyrimidin-4-one]: 6.21.
On to `O=c1[nH]c(C2CCN(C3CCCCC3)CC2)nc(N[C@@H]2CCCNC2)c1-c1nc2ccccc2s1` [Example 232, (R)-5-(1,3-benzothiazol-2-yl)-2-(1-cyclo-hexylpiperidin-4-yl)-6-[(piperidin-3-yl)amino]-3,4-dihydropyrimidin-4-one], for which, where the note is “read-out: IC50”, the negative logarithm of the IC50 (pIC50) is 6.35.
For the compound `O=c1[nH]c(C2CCN(C3CCOC3)CC2)nc(N[C@@H]2CCCNC2)c1-c1nc2ccccc2s1` (stereo partly drawn) [Example 233, 5-(1,3-benzothiazol-2-yl)-2-[1-(oxolan-3-yl)piperidin-4-yl]-6-[[(3R)-piperidin-3-yl]amino]pyrimidin-4-ol], the pIC50 (read-out: IC50) was 6.74.
As to `O=c1[nH]c(C2CCN(C3CCOCC3)CC2)nc(N[C@@H]2CCCNC2)c1-c1nc2ccccc2s1` [Example 234, (R)-5-(benzo[d]thiazol-2-yl)-6-(piperidin-3-ylamino)-2-(1-(tetrahydro-2H-pyran-4-yl)piperidin-4-yl)pyrimidin-4(3H)-one], for the setting “read-out: IC50”, the pIC50 was 6.36.
For the compound `CCS(=O)(=O)N1CCC(c2nc(N[C@@H]3CCCNC3)c(-c3nc4ccccc4s3)c(=O)[nH]2)CC1` [Example 236], under “read-out: IC50”, the pIC50 was 6.26.
`CC(C)S(=O)(=O)N1CCC(c2nc(N[C@@H]3CCCNC3)c(-c3nc4ccccc4s3)c(=O)[nH]2)CC1` [Example 237, 5-(1,3-benzothiazol-2-yl)-6-[[(3R)-piperidin-3-yl]amino]-2-[1-(propane-2-sulfonyl)piperidin-4-yl]-3,4-dihydropyrimidin-4-one]: where the note is “read-out: IC50”, the negative-log IC50 (pIC50) was 6.68.
As to `O=c1[nH]c(C2CCN(S(=O)(=O)C3CC3)CC2)nc(N[C@@H]2CCCNC2)c1-c1nc2ccccc2s1` [Example 238, (R)-5-(1,3-benzothiazol-2-yl) 2-[1-(cyclopropane-sulfonyl)piperidin-4-yl]-6-[(piperidin-3-yl)amino]-3,4-dihydropyrimidin-4-one], the pIC50 (read-out: IC50) was 6.77.
As for `CNC(=O)N1CCC(c2nc(N[C@@H]3CCCNC3)c(-c3nc4ccccc4s3)c(=O)[nH]2)CC1` [Example 240, (R)-4-[5-(1,3-benzo-thiazol-2-yl)-6-oxo-4-[[(3R)-piperidin-3-yl]amino]-1,6-dihydro-pyrimidin-2-yl]-N-methyl-piperidine-1-carboxamide], the pIC50 (read-out: IC50) was 6.70.
For the compound `O=c1[nH]c(C2CCN(c3ccccn3)CC2)nc(N[C@@H]2CCCNC2)c1-c1nc2ccccc2s1` [Example 242, (R)-5-(benzo[d]thiazol-2-yl)-6-(piperidin-3-ylamino)-2-(1-(pyridin-2-yl)piperidin-4-yl)pyrimidin-4(3H)-one], the pIC50 under setting [1] was 6.74.
On to `O=c1[nH]c(C2CCN(c3cnccn3)CC2)nc(N[C@@H]2CCCNC2)c1-c1nc2ccccc2s1` [Example 243, (R)-5-(benzo[d]thiazol-2-yl)-6-(piperidin-3-ylamino)-2-(1-(pyrazin-2-yl)piperidin-4-yl)pyrimidin-4(3H)-one], for which, under “read-out: IC50”, the negative-log IC50 (pIC50) is 6.74.
